Values quoted from earlier work as cited in US8859603B2, “Method for solubilizing metronidazole” (Galderma S.A., priority 2004, dated 2014).

Settings: no solubilizer

In the case of `Cc1ncc([N+](=O)[O-])n1CCO` [metronidazole, 1-(2-hydroxyethyl)-2-methyl-5-nitroimidazole], the “intrinsic solubility of metronidazole in an aqueous phase” value is listed as ~0.9 % (m/m).
